Broadly, the inhibition is the relative decrease from the control value, in per cent. The IC50 is the midpoint of a concentration-inhibition curve. Low values mean inhibition by little substance, high ones a need for much substance.

Test [1] concerns the target FXIIa (Homo sapiens, UniProt P00748). In words: Medium‐throughput screening. The test is classed as biochemical. As to conditions: read-out: Inhibition @100 nM [in MTS] FXIIa.
For test [2], the target named is human plasma β‐FXIIa (Homo sapiens, UniProt P00748). In words: Mass‐shift analysis of the covalent FXIIa‐inhibitor complex by SEC/ESI‐MS. It counts as binding. The settings on record: 15 min incubation, enzyme:inhibitor 1 : 20. (SEC sorts molecules by how far they enter the pores of the column.)
The target in test [3] is human β‐FXIIa (Homo sapiens, UniProt P00748). It counts as biochemical.
The target of test [4] is porcine trypsin (Sus scrofa, UniProt P00761). In words: Trypsin inhibition assay, fluorogenic substrate Z‐Gly‐Gly‐Arg‐AMC. It counts as biochemical.
Test [5] has as its target thrombin (FIIa) (Homo sapiens, UniProt P00734). The test is described as follows: Medium‐throughput screening. The test is classed as biochemical. The settings on record: read-out: Inhibition @100 nM [in MTS] FIIa.
The target in test [6] is human Factor Xa (Homo sapiens, UniProt P00742). The test is described as follows: FXa inhibition assay, fluorogenic substrate Boc‐Ile‐Glu‐Gly‐Arg‐AMC. The test is classed as biochemical.
The target of test [7] is human α‐thrombin (factor IIa) (Homo sapiens, UniProt P00734). The test is classed as biochemical.

Structures are written as SMILES.

Chain of human Factor Xa (P00742 235-488 limits assumed): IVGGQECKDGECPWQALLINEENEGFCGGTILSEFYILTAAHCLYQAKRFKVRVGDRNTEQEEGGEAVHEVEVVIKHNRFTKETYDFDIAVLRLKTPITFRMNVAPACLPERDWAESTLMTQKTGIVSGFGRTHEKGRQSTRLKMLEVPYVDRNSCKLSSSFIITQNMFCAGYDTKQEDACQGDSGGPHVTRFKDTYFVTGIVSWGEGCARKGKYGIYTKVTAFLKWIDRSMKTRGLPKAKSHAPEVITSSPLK
Chain of human Factor Xa (P00742 41-179 limits assumed): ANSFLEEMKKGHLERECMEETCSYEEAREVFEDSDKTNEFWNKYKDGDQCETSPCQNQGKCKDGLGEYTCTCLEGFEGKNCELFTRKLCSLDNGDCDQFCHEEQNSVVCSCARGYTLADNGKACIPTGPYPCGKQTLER
Chain of human plasma β‐FXIIa (P00748 373-615 limits assumed, other chains not shown): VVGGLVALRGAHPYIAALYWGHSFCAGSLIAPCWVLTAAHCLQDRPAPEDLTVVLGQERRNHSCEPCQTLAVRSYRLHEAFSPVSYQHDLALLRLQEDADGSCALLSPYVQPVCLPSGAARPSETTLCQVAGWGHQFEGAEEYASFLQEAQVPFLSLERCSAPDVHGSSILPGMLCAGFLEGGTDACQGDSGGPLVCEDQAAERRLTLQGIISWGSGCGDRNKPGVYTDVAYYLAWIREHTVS
Chain of human β‐FXIIa (P00748 373-615 limits assumed, other chains not shown): as above
Chain of FXIIa (P00748 373-615 limits assumed, other chains not shown): as above
Chain of porcine trypsin (P00761 9-231): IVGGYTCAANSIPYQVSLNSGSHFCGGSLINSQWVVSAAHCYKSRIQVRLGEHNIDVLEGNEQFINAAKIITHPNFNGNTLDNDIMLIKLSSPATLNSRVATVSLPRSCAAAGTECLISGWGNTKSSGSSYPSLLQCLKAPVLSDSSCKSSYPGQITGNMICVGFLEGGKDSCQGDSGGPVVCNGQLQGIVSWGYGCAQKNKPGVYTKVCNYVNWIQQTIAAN

Consider `Nc1nc(-c2ccc3ccccc3n2)nn1C(=O)[C@H]1CCCc2ccccc21` [33 g, (S)‐(5‐Amino‐3‐(quinolin‐2‐yl)‐1H‐1,2,4‐triazol‐1‐yl)(1,2,3,4‐tetrahydronaphthalen‐1‐yl)‐methanone], for which the inhibition at 0.1 µM in test [1] stood at 94%; in test [5], 5%. Further, in test [2], the “mass shift of FXIIa (acyl moiety adduct)” value came to 158.2 Da. In addition, the concentration for half-maximal inhibition (IC50) in test [3] is 33 ± 1 nM; in test [4], > 5000 nM; in test [6], > 5000 nM; in test [7], 1010 ± 155 nM.

The values are drawn from publication PMC9292294 (Chemmedchem, 2021).
